Patent US4014909A, “Esters of 21-thiol steroids” (priority 1974, dated 1977)
Read-outs that look alike come from different tables or passages of the source.

Key:
thymus = format: in vivo, rat (Wistar, young male)
Procedure: The thymolytic effects have been examined by means of a test, the principle of which is as follows:
The repeated administration of a gluco-corticoid having a systemic activity causes an involution of the defence system of the organism, of which two organs belong to the reticulo-endothelial system, the spleen and the thymus, this latter being the most sensitive to this action, especially with young animals. The thymic involution is estimated by weighing.
The various products were injected daily by the oral or the sub-cutaneous route for four days, to young male rats of Wistar-strain, the initial weight of which was between 45 and 55 grams, distributed at random by groups of ten.
The products under study were administered at a volume of 0.2 ml. per animal for both methods, in suspension in:
Carboxy-methyl-cellulose at 5 % for sub-cutaneous injection;
Gum arabic at 5 % for the oral route.
The animals of the reference groups received the same volume of the corresponding vehicle.
Ninety-six hours after the first administration, the animals were killed, the thymus glands being taken and weighed immediately.
(§1) For each animal, the weight of the thymus has been brought to 100 grams of body weight. The thymolytic activity of the products under study was then expressed as a percentage of regression of the thymus with respect to the animals of the reference group and the ED50 of each product tested was estimated by transferring the percentage inhibition obtained for each dose on semi-logarithmic paper.

[1] = tested on: exudate in carrageenan air pouch; assay: Anti-exudative action, carrageenan air pouch; format: in vivo, rat (Wistar, male); settings: injected into the air pouch 96 h after carrageenan; exudate measured 96 h later
Procedure: The anti-exudative activity was brought into evidence by means of a test, the principle of which is as follows.
This test consists of creating, under the dorsal skin of the rat an air pouch in which an irritant product is injected. An inflammatory reaction appears rapidly and is shown by the accumulation of liquid in the pouch of air.
The introduction of an anti-inflammatory product into the air pouch reduced, more or less completely, the accumulation of exudate.
This study was carried out with male rats of the Wistar strain, the initial weight of which was between 160 and 180 grams, following the technique described by M. Fukuhara and S. Tsurufuji (Bio-Chem. Pharmac. 18, 475-484, 1969). Each lot comprised 10 animals distributed at random.
Twenty-four hours before the beginning of the test, each animal received a sub-cutaneous injection of 6 ml. of air in the dorsal region, previously shaved. […]
Ninety-six hours after this last injection, the animals were killed and the exudate contained in the pouch was collected through a small incision made with a scalpel, and its volume was measured in a test tube.
The difference in volume of the exudate between the animals treated and the reference lot was expressed as a percentage inhibition.

granuloma / thymus = assay: Ratio of the local anti-inflammatory activity to the thymolytic activity; format: in vivo, rat (Wistar); settings: for ED50 anti-proliferative activity / ED50 thymolytic activity (sub-cutaneous route): thymolytic activity determined by sub-cutaneous route; for ED50 anti-proliferative activity / ED50 thymolytic activity (oral route): thymolytic activity determined by the oral route
Procedure: The DE50 were calculated by transferring the results on to semi-logarithmic paper.
as §1
The ratio is indicated in Tables VII, VIII and IX which follow: […]

[2] = tested on: liver, kidneys, spleen, thymus, stomach; format: in vivo, rat (Sprague-Dawley); settings: 4 weeks
Source text: (§2) The action on the endocrine glands and the genital tractus, and a possible ulcerogenic effect were investigated, together with the effects on the glucidic and proteic metabolisms, on the hydro-mineral equilibrium after long-term administration.
The principle of the tests employed is as follows.
The ulcer-producing action of certain corticoids, after repeated administration is well known, but the mechanism of this action still remains doubtful.
These studies have been carried out for some of the products according to the invention after sub-chronic administration.
(§3) There were utilized groups of 10 male rats and ten female rats of Sprague-Dawley S.P.F. strain which have been given the products under study by sub-cateneous methods daily for four weeks.
(§4) The products were administered in suspension in 5 % carboxy-methyl-cellulose under a volume of 0.5 ml. per 100 grams of body weight, in three different doses, the animals of the reference lot receiving the same volume of the vehicle alone.
At the end of this study there were extracted:
The samples numbered (1), (2) and (3) were immediately weighed. All the samples were then fixed for histological examination in the Bouin-Holland fixator.
During the course of the long-term study, the JO 1016 was administered daily to the male and female rats in doses of 100 mg/kg, 250 mg/kg, 500 mg/kg by the sub-cutaneous route.

[3] = Body weight after long-term sub-cutaneous treatment; format: in vivo, rat (Sprague-Dawley); settings: 4 weeks
Procedure: as §2, §3, §4
In order to confirm certain previous results of the pharmacological short-term study, there has furthermore been determined, for each lot of animals:
The evolution of weight and the consumption of food during the treatment;
During the course of the long-term study, the JO 1016 was administered daily to the male and female rats in doses of 100 mg/kg, 250 mg/kg, 500 mg/kg by the sub-cutaneous route. […]

CC(=O)OCC(=O)[C@@]1(O)CC[C@H]2[C@@H]3CCC4=CC(=O)CC[C@]4(C)[C@H]3[C@@H](O)C[C@@]21C [Hydrocortisone (acetate), Hydrocortisone acetate, reference compound]
ED50 thymolytic activity, sub-cutaneous route (thymus; rat, in vivo, 5760 min): 0.68 mg
ED50 thymolytic activity, oral route (thymus; rat, in vivo, po, 5760 min): 4 mg
ED50 anti-exudatory activity [1]: 1,5 mg
ED50 anti-proliferative activity / ED50 thymolytic activity (sub-cutaneous route) (granuloma / thymus): 1.2
ED50 anti-proliferative activity / ED50 thymolytic activity (oral route) (granuloma / thymus): 0.25

CC(C)(C)C(=O)SCC(=O)[C@@]1(O)CC[C@H]2[C@@H]3CCC4=CC(=O)CC[C@]4(C)[C@H]3[C@@H](O)C[C@@]21C [JO 1016, Dihydroxy-11β, 17α thio-21 dioxo-3,20 pregnene-4-21 pivalate]
ED50 thymolytic activity, oral route (thymus; oral, total dose administered during four days per rat of about 50 g): 400 mg
ED50 thymolytic activity, sub-cutaneous route (thymus; sub-cutaneous, total dose administered during four days per rat of about 50 g): > 120 mg
Kidneys: presence of abscess (cases) ([2]; 250 mg/kg s.c. daily): 0/10
Liver: presence of abscess (cases) ([2]; 250 mg/kg s.c. daily): 0/10
Spleen: atrophied (cases) ([2]; 250 mg/kg s.c. daily): 0/10
Stomach: ulcerated (cases) ([2]; 250 mg/kg s.c. daily): 0/10
Stomach: ulcerated and infected (cases) ([2]; 250 mg/kg s.c. daily): 0/10
Thymus: atrophied (cases) ([2]; 250 mg/kg s.c. daily): 0/10
Kidneys: presence of abscess (cases) ([2]; 500 mg/kg s.c. daily): 0/10
Liver: presence of abscess (cases) ([2]; 500 mg/kg s.c. daily): 0/10
Spleen: atrophied (cases) ([2]; 500 mg/kg s.c. daily): 0/10
Stomach: ulcerated (cases) ([2]; 500 mg/kg s.c. daily): 0/10
Stomach: ulcerated and infected (cases) ([2]; 500 mg/kg s.c. daily): 0/10
Thymus: atrophied (cases) ([2]; 500 mg/kg s.c. daily): 0/10
ED50 anti-exudatory activity [1]: 1.5 mg
ED50 anti-proliferative activity / ED50 thymolytic activity (sub-cutaneous route) (granuloma / thymus): 0.0008
ED50 anti-proliferative activity / ED50 thymolytic activity (oral route) (granuloma / thymus): < 0.003
Body weight, average ± standard error ([3]; female rats, 100 mg/kg s.c.): 219 ± 3.06 g
Body weight, percentages of variation and probabilities ([3]; female rats, 100 mg/kg s.c.): N.S.
Body weight, average ± standard error ([3]; female rats, 250 mg/kg s.c.): 216 ± 3.18 g
Body weight, percentages of variation and probabilities ([3]; female rats, 250 mg/kg s.c.): N.S.
Body weight, average ± standard error ([3]; female rats, 500 mg/kg s.c.): 198 ± 4.85 g
Body weight, average ± standard error ([3]; male rats, 100 mg/kg s.c.): 299 ± 45.2 g
Body weight, percentages of variation and probabilities ([3]; male rats, 100 mg/kg s.c.): N.S.
Body weight, average ± standard error ([3]; male rats, 250 mg/kg s.c.): 289 ± 7.7 g
Body weight, percentages of variation and probabilities ([3]; male rats, 250 mg/kg s.c.): N.S.
Body weight, average ± standard error ([3]; male rats, 500 mg/kg s.c.): 274 ± 2,5 g
